Test results reported in US20210269479A1, “USE OF CY[…] FOR TREATING CANCER” (Hepion Pharmaceuticals, Inc., priority 2020, published 2021).

Tests used:
[1] = tested on: human precision cut liver slices (PCLS); assay: Sirius red histological staining of PCLS (tissue fibrosis); assay type: cell-based
Method: (§1) PCLS were obtained from 5 human donors who underwent resection of liver cancer. Replicate slices were collected from healthy margins of the resections and cultured for 4 or 6 days depending on the experimental protocol. In the Nonstimulation Protocol slices were cultured for 6 days and treated for the entire period with DMSO vehicle or 5 μM CRV431. In the Stimulation Protocol slices were rested for 1 day and then administered the cytokines, TGFβ and PDGF-BB, for 3 days to stimulate inflammation and fibrosis. DMSO vehicle, CRV431 (1 and 5 μM), Alk5i (10 μM), obeticholic acid (5 μM), elafibranor (5 μM), resmetirom (5 μM), and Aramchol (5 μM) were administered individually as drug treatments in the Stimulation Protocol concurrent with TGFβ+PDGF-BB. Culture medium treatments were replaced daily.
(b) Sirius red histological staining. […] Sirius red was quantified morphometrically in the histological sections as the percentage area with Sirius red staining in 10 sections from each treatment. In the Nonstimulation Protocol the quantity of Sirius red staining was expressed relative to the vehicle group. In the Stimulation Protocol the quantity of Sirius red staining was expressed relative to nonstimulated PCLS (0%) and TGFβ+PDGF-BB-stimulated+vehicle PCLS (100%). Results are shown in FIG. 1B (Sirius red staining for tissue fibrosis).

[2] = tested on: human precision cut liver slices (PCLS); assay: RNA-Seq of PCLS, Stimulation Protocol (TGFb/PDGF + CRV vs TGFb/PDGF + Vehicle); assay type: cell-based
Method: as §1
(d) Gene expression by RNA-Seq. RNA sequencing of the complete transcriptome (30 million reads per sample) was conducted on vehicle and 5 μM CRV431 treatment groups from 3 donors both from the Nonstimulation and Stimulation Protocols. Data were analyzed by bioinformatics software programs to identify genes that were differentially expressed between vehicle and CRV431 treatments.
For the evaluation done for (d), 12 samples corresponding to 3 different donor slides which underwent 4 different treatments were studied. the comparisons carried out in this analysis are: (1) TGFb/PDGF+CRV vs TGFb/PDGF+Vehicle (V), and (2) Non-stimulated+CRV vs Non-stimulated+Vehicle.
Heatmaps were also generated to plot significant differently expressed genes for the comparison TGFb/PDGF+CRV and TGFb/PDGF+Vehicle (p-adjust<0.05, log fold change>0.5). The heatmap with the samples grouped by group is shown in FIG. 3A to observe the different expression pattern present within the group (blue=vehicle; red=CRV). The same significant genes were also plotted into another heatmap (FIG. 3B) but the samples are now plotted grouped by donor in order to observe the differences between donors (blue=vehicle; red=CRV).
Significant differently expressed genes that were identified in the comparison TGFb/PDGF+CRV and TGFb/PDGF+Vehicle ([…], log fold change>0.5) are shown in Table 2. The fold change is relative to the treatment (CRV).
As shown in the PCA analysis, there is a strong effect of the donor. Therefore, each donor was analyzed individually. Counts comparison was performed for TGFb/PDGF+[…] vs TGFb/PDGF+Vehicle by donor. […] Therefore the vehicle group had at least 300 copies less than CRV treatment. In other words, the treatment had at least 300 copies more than the Vehicle. After doing this selection individually for each donor, a venn diagram was plotted showing the overlapping between all three donors.
So, they had at least 300 copies less in the CRV treatment compared to the vehicle. After doing the selection individually for each donor, a venn diagram was plotted showing the overlapping between all three donors.

[3] = TGFb/PDGF + CRV vs TGFb/PDGF + Vehicle, 5 μM
[4] = presence of exogenous TGFβ+PDGF-BB, all donors

SMILES: CC[C@@H]1NC(=O)[C@H]([C@H](O)[C@H](C)CCCCCCNC(C)=O)N(C)C(=O)[C@H](C(C)C)N(C)C(=O)[C@H](CC(C)C)N(C)C(=O)[C@H](CC(C)C)N(C)C(=O)[C@@H](C)NC(=O)[C@H](C)NC(=O)[C@H](CC(C)C)N(C)C(=O)[C@H](C(C)C)NC(=O)[C@H](CC(C)C)N(C)C(=O)[C@@H](C)N(C)C1=O [CRV431]
- tissue fibrosis vs vehicle-treated slices ([1]; 6 days of culture, absence of exogenous TGFβ+PDGF-BB): less fibrosis than vehicle-treated slices
- prevention of TGFβ+PDGF-BB-induced tissue fibrosis ([1]; Stimulation Protocol, compared with other NASH drug candidates): most effective of five NASH drug candidates
- log2FoldChange, gene AC009053.1 [2, 3]: 1.194
- log2FoldChange, gene AC134772.2 [2, 3]: −4.561
- log2FoldChange, gene ADH1B [2, 3]: 2.156
- log2FoldChange, gene ADH1C [2, 3]: 1.869
- log2FoldChange, gene ADH4 [2, 3]: 2.123
- log2FoldChange, gene ADH6 [2, 3]: 1.903
- log2FoldChange, gene ADIRF [2, 3]: 1.402
- log2FoldChange, gene APLNR [2, 3]: 0.844
- log2FoldChange, gene ASPG [2, 3]: 0.91
- log2FoldChange, gene ATP13A4 [2, 3]: −3.082
- log2FoldChange, gene C7 [2, 3]: 0.739
- log2FoldChange, gene CA11 [2, 3]: −1.573
- log2FoldChange, gene CBFA2T2 [2, 3]: 1.299
- log2FoldChange, gene CD93 [2, 3]: −0.613
- log2FoldChange, gene CHST1 [2, 3]: −1.087
- log2FoldChange, gene COL5A3 [2, 3]: −0.842
- log2FoldChange, gene CXADR [2, 3]: 1.61
- log2FoldChange, gene CYP4A11 [2, 3]: 1.611
- log2FoldChange, gene CYP26A1 [2, 3]: −1.283
- log2FoldChange, gene CYP26B1 [2, 3]: −0.656
- log2FoldChange, gene DCHS1 [2, 3]: −0.686
- log2FoldChange, gene DLL4 [2, 3]: −0.69
- log2FoldChange, gene DUOX2 [2, 3]: −2.182
- log2FoldChange, gene DVL1 [2, 3]: 0.635
- log2FoldChange, gene ENSG00000283623 (symbol NA) [2, 3]: −5.759
- log2FoldChange, gene ERVK13-1 [2, 3]: −1.125
- log2FoldChange, gene ESAM [2, 3]: −0.573
- log2FoldChange, gene ESM1 [2, 3]: −1.401
- log2FoldChange, gene ESR1 [2, 3]: 3.688
- log2FoldChange, gene F2RL3 [2, 3]: −0.711
- log2FoldChange, gene GLYATL1 [2, 3]: 1.438
- log2FoldChange, gene GPR4 [2, 3]: −0.9
- log2FoldChange, gene GRAP [2, 3]: −0.772
- log2FoldChange, gene HIST2H2AA4 [2, 3]: −7.504
- log2FoldChange, gene IGHV4-61 [2, 3]: 7.957
- log2FoldChange, gene IGLON5 [2, 3]: −0.851
- log2FoldChange, gene ISLR2 [2, 3]: −1.27
- log2FoldChange, gene KDM6A [2, 3]: 0.785
- log2FoldChange, gene LAMA4 [2, 3]: −0.939
- log2FoldChange, gene LIMS3 [2, 3]: −1.705
- log2FoldChange, gene LOXL2 [2, 3]: −0.948
- log2FoldChange, gene MCAM [2, 3]: −0.841
- log2FoldChange, gene MEF2C [2, 3]: −1.013
- log2FoldChange, gene MEG3 [2, 3]: −0.853
- log2FoldChange, gene MRC2 [2, 3]: −0.773
- log2FoldChange, gene MROH2A [2, 3]: 3.641
- log2FoldChange, gene MT-CO1 [2, 3]: −0.85
- log2FoldChange, gene NID2 [2, 3]: −0.755
- log2FoldChange, gene NXPH4 [2, 3]: −0.808
- log2FoldChange, gene PAN2 [2, 3]: 1.019
- log2FoldChange, gene PANK3 [2, 3]: 0.687
- log2FoldChange, gene PCDH12 [2, 3]: −0.741
- log2FoldChange, gene PHF8 [2, 3]: 0.709
- log2FoldChange, gene PKLR [2, 3]: 2.127
- log2FoldChange, gene PLXNA2 [2, 3]: 1.326
- log2FoldChange, gene POU6F1 [2, 3]: −1.716
- log2FoldChange, gene PPP1R16B [2, 3]: −1.016
- log2FoldChange, gene RALGPS2 [2, 3]: 0.836
- log2FoldChange, gene RBMXL1 [2, 3]: −8.265
- log2FoldChange, gene RCCD1 [2, 3]: −1.838
- log2FoldChange, gene RHCG [2, 3]: −0.927
- log2FoldChange, gene RPS7P1 [2, 3]: 2.668
- log2FoldChange, gene SLC4A8 [2, 3]: −2.641
- log2FoldChange, gene SLC26A6 [2, 3]: −0.692
- log2FoldChange, gene SLC39A5 [2, 3]: 1.92
- log2FoldChange, gene SMC5 [2, 3]: 0.799
- log2FoldChange, gene STRA6 [2, 3]: −1.639
- log2FoldChange, gene STX16 [2, 3]: 1.025
- log2FoldChange, gene TDO2 [2, 3]: 0.916
- log2FoldChange, gene TMEM70 [2, 3]: 1.062
- log2FoldChange, gene TTYH2 [2, 3]: −1.114
- log2FoldChange, gene UBD [2, 3]: −1.035
- log2FoldChange, gene VWA8 [2, 3]: 1.514
- log2FoldChange, gene ZC3H10 [2, 3]: 1.022
- log2FoldChange, gene ZDHHC20 [2, 3]: 1.207
- log2FoldChange, gene ZNF461 [2, 3]: 1.391
- expression of fibrosis-related genes by RNA-Seq ([2]; collagen genes, collagen hydroxylases and oxidases, ACTA2, VEGF, TIMPs): decreased expression of many fibrosis-related genes
- fold change in RNA, DUOX2 [2, 4]: −4.5 fold
- fold change in RNA, ESM1 [2, 4]: −2.6 fold
- fold change in RNA, LOXL2 [2, 4]: −1.9 fold
- fold change in RNA, RCCD1 [2, 4]: −3.6 fold
- fold change in RNA, STRA6 [2, 4]: −3.1 fold
- fold change in RNA, UBD/FAT10 [2, 4]: −2.0 fold
